According to ChEMBL document CHEMBL3988442, “University of Dundee, Small-Polar-MMV Screening Library” (2021):
“And” between values parts separate entries of the source, which are not always exact repeats. Equal values may be shown once.

Columns and labels:
Trypanosoma brucei = assay: Trypanosoma brucei 72 hour study; format: functional, organism-based; details: for IC50: Trypanosoma brucei, 72 h
Leishmania donovani = assay: Leishmania intramacrophage assay; format: functional, organism-based; details: for IC50: Leishmania donovani
[1] = In vitro enzyme assay to detect hydrolysis of chlorophenol red-beta-D-[…] directly proportional to the number of Toxoplasma stably expressing beta-galactosidase; format: functional, organism-based, Toxoplasma gondii; details: for IC50: Toxoplasma gondii
Wolbachia pipientis = assay: Anti-Wolbachia Cell-Based Screen; format: functional
[2] = microbe, parasite or virus in culture; details: Mycobacterium tuberculosis, 72 h, read-out: pIC50 (converted)
[3] = tested on: Mycobacterium tuberculosis; assay: Cornell M. t heat shock assay; format: functional, organism-based; details: for IC50: Mycobacterium tuberculosis
[4] = microbe, parasite or virus in culture; details: Mycobacterium tuberculosis, 96 h, read-out: pIC50 (converted)
ClpP1P2 = ClpP1P2 (Mycobacterium tuberculosis (strain ATCC 25618 / H37Rv), UniProt P9WPC3+P9WPC5); assay: in vitro assay to detect presence of AMC directly proportional to the activity of ClpP1P2. GHDDI collaboration.; format: functional
Chain of ClpP1P2 (P9WPC5 whole entry): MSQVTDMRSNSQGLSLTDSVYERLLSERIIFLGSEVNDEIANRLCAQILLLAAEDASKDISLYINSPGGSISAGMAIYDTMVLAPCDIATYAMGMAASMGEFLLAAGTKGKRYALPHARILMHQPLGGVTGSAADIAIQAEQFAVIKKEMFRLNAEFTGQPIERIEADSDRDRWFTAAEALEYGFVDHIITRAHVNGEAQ
Chain of ClpP1P2 (P9WPC3 whole entry): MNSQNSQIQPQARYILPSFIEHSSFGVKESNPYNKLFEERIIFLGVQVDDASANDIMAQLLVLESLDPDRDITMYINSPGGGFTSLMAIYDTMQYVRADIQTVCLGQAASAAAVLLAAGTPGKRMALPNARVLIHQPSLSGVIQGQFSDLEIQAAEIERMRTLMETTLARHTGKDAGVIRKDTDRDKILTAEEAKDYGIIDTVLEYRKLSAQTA

Plasmodium falciparum = assay: Calibr Malaria Delayed Death Assay SOP; format: functional, organism-based; details: for IC50: Plasmodium falciparum
[5] = target: T1, Coenzyme A biosynthesis bifunctional protein CoaBC (Mycobacterium tuberculosis (strain ATCC 25618 / H37Rv), UniProt P9WNZ1); assay: Biomol Green assay for MtCoaBC inhibitor, OD650 read; format: functional
T1 sequence (P9WNZ1 whole entry): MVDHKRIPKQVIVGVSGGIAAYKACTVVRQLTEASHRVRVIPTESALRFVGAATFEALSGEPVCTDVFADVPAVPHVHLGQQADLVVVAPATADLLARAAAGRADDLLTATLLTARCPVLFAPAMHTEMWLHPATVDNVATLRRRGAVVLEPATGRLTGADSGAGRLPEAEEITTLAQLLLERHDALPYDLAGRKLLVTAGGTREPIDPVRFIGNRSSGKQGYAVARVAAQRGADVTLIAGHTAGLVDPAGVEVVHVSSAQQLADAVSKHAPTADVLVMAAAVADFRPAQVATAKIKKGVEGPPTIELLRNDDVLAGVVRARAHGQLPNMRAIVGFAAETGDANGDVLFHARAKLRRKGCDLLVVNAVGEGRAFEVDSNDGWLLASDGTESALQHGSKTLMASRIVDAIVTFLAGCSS

Histidine--tRNA ligase = target: T2, Histidine--tRNA ligase (Leishmania infantum, UniProt A4I591); assay: Leishmania infantum Histidine tRNA synthetase (LdHisRS); format: functional
T2 sequence (A4I591 whole entry): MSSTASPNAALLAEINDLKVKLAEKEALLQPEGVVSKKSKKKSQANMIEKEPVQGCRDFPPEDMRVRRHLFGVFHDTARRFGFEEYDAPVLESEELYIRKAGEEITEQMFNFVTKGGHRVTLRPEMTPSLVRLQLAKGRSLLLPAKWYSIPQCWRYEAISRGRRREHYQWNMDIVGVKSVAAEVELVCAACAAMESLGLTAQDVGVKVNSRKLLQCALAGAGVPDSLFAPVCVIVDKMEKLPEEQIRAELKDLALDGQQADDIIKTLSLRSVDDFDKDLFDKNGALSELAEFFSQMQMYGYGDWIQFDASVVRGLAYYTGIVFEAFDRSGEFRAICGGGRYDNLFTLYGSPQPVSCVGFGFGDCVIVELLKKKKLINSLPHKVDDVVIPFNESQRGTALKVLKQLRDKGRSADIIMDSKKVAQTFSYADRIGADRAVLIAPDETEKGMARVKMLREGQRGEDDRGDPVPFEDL

Tryptophan--tRNA ligase = Tryptophan--tRNA ligase (Mycobacterium tuberculosis (strain ATCC 25618 / H37Rv), UniProt P9WFT3); assay: Biochemical assay for Mt-TrpRS; format: functional
Chain of Tryptophan--tRNA ligase (P9WFT3 whole entry): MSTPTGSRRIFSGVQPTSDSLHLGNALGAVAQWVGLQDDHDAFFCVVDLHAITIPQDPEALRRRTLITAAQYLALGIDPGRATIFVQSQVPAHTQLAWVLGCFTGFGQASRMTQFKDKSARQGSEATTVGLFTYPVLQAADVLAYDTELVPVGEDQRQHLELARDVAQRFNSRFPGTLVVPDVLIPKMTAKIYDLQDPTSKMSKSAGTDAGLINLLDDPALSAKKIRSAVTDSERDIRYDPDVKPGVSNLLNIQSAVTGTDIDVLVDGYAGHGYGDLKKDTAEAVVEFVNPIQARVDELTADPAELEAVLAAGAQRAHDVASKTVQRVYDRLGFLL

Compound | pIC50 (Trypanosoma brucei) | IC50 (Trypanosoma brucei) [µM] | pIC50 (Leishmania donovani) | IC50 (Leishmania donovani) [µM] | further results
CC(Nc1ncnc2c1CCNC2)c1ccc(C(C)(C)C)cc1 (configuration not stated) | 4.656 and 4.706 | 20.6 | 4.856 | 19.6 | –
Cc1sc2nc(CCN)nc(N(C)CCCC3CCCO3)c2c1C (configuration not stated) | 4.729 and 4.748 | 22.5 | – | > 50.1 | –
CCOC(=O)N1CC2(CCNCC2)c2cc(Cl)ccc21.Cl | 4.722 and 4.602 | 20.3 | 4.68 | 22.3 | –
COc1c(C)cnc(CN(C)C2CCCCC2)c1C | 5.179 and 5.161 | 6.48 | 4.733 | 13.3 | pIC50 [1]: 5.219; IC50 [1]: 4.88 µM; pIC50 (Wolbachia pipientis): 5.441; IC50 (Wolbachia pipientis; Wolbachia pipientis): 6.39 µM
COc1ccc2[nH]cc(-c3ccnc(NC4CCCC4)n3)c2c1 | 5.019 and 4.85 | 14.6 | 4.561 | 21.8 | IC50 [1]: 2.65 µM
CC(C)c1cc(=O)[nH]c(-n2nc(C3CC3)cc2N)n1 | 5.692 and 5.673 | 2.09 | 4.627 | 40.3 | pIC50 [1]: 6.102 and 5.757; IC50 [2]: 12.5 µM; IC50 [3]: 4.63 µM; IC50 [4]: 11.5 µM
CN(C)S(=O)(=O)c1ccc(-c2nc(C#N)c(NC(C)(C)C)o2)o1.Cl | 4.737 and 4.726 | 18.4 | – | > 50.1 | IC50 [1]: 7.65 µM; IC50 [3]: 11.3 µM; IC50 (ClpP1P2): > 100 µM
CCC1CN(C(=O)c2csc3nc(-c4ccc(Cl)cc4)cn23)CCN1 (configuration not stated) | 5.161 and 5.156 | 7.75 | 4.877 | 12.4 | IC50 [2]: 17.9 µM; IC50 [4]: 49.2 µM
FC1(F)CCN(Cc2cccnc2)CC12CCN(c1ccccc1)C2.O=C(O)C(F)(F)F.O=C(O)C(F)(F)F.O=C(O)C(F)(F)F (configuration not stated) | 5.234 and 5.17 | 6.05 | – | – | pIC50 (Plasmodium falciparum): 5.955; IC50 (Plasmodium falciparum): 1.16 µM; IC50 [2]: 43.8 µM; IC50 [5]: > 30.2 µM; IC50 (Histidine--tRNA ligase): 13.6 µM and 18.6 µM; IC50 [4]: 12.5 µM
CC(C)N1CCCC(C(=O)N2CCN(c3nsc4ccccc34)CC2)C1 (configuration not stated) | 4.562 and 4.572 | 20.3 | 4.419 | 30.3 | –
O=C(c1cc(-c2ccn(CC3CC3)n2)n2ccccc12)N1CCOCC1 | 5.586 and 5.592 and 5.253 | – | 4.802 | 18.9 | pIC50 (Plasmodium falciparum): 5.917; IC50 (Plasmodium falciparum): 1.01 µM; IC50 [2]: 27.8 µM; IC50 (ClpP1P2): > 100 µM; IC50 [4]: > 50.1 µM
CCN(Cc1c(F)cccc1Cl)c1cc(C2CCNCC2)nc(C)n1 | 5.239 and 5.238 | 4.96 | 5.445 | 3.56 | IC50 [1]: 4.56 µM; pIC50 (Plasmodium falciparum): 6.254; IC50 (Plasmodium falciparum): 0.495 µM; IC50 [2]: 37.4 µM; IC50 [4]: 24.4 µM
CC(Nc1ncnc2c1CCNC2)c1ccc2c(c1)CCCC2 (configuration not stated) | 4.894 and 4.867 | 8.18 | 4.725 | 25 | –
Cc1[nH]/c(=N\C(=O)c2csc(NCC(C)C)n2)sc1C | 5.208 and 5.15 | 6.25 | 4.614 | 19.4 | IC50 [1]: 4.62 µM
CCc1cc(=O)[nH]c(-n2nc(C3CC3)cc2NC(=O)C2CC2)n1 | 5.404 and 5.398 | 3.41 | 4.573 | 29.8 | pIC50 [1]: 5.904; IC50 [1]: 1.58 µM; IC50 [2]: 12.5 µM; IC50 [4]: 11.4 µM
Cc1nc(C2(O)CCCNCC2)sc1CCOc1ccc(Cl)cc1.Cl (configuration not stated) | 5.216 and 5.242 | 5.07 | 4.792 | 8.46 | IC50 [1]: 11 µM
Nc1cc(N2CCC(c3cc(Cc4ccccc4)n[nH]3)CC2)ccn1 | 5.138 and 5.184 | 6.85 | 4.671 | 17.4 | pIC50 [1]: 5.141; IC50 [1]: 4.92 µM; IC50 (Histidine--tRNA ligase): 69.6 µM and 73.8 µM
CCNC(=O)[C@@H]1C[C@@H](N)CN1Cc1ccc(Sc2ccc(C)cc2)o1 | 5.166 and 5.161 | 6.83 | 4.875 | 13.8 | –
CN1[C@H]2CC[C@@H]1CN(C(=O)c1ccc(-c3ccccc3)[nH]1)CC2 | 4.853 and 4.971 | 9.62 | 4.659 | 30.6 | –
CN1CCN(CC(NCc2cccc(O)c2)c2ccccc2)CC1 (configuration not stated) | 5.312 and 5.375 | 4.3 | – | 13.7 | –

Compound | pIC50 (Trypanosoma brucei) | IC50 (Trypanosoma brucei) [µM] | pIC50 (Leishmania donovani) | IC50 (Leishmania donovani) [µM] | further results
Cc1nc2c(c(NCc3cc4ccccc4s3)n1)CCNCC2 | 5.606 and 5.633 | 2.29 | 5.15 | 5.79 | IC50 [2]: > 50.1 µM; IC50 [4]: 38 µM
Clc1cccc(C2CCN(c3ncnc4c3CCNC4)C2)c1 (configuration not stated) | 4.718 and 4.683 | 19.9 | 4.674 | 23.9 | IC50 [2]: > 50.1 µM; IC50 [4]: 29.6 µM
CN(Cc1cccc(O)c1)CC1CCCN(CCc2ccc(Cl)cc2)C1 (configuration not stated) | 5.504 and 5.492 | 3.82 | 5.277 and 4.854 | – | pIC50 (Plasmodium falciparum): 6.224; IC50 (Plasmodium falciparum): 0.634 µM
CCCOc1ccccc1CCCNc1ncnc2oc(C)nc12 | 5.583 and 5.61 | 4.09 | 4.492 and 4.801 | – | IC50 [2]: 25.4 µM; IC50 [4]: > 50.1 µM
Cl.NC1CCc2nc(-c3cccnc3)nc(Nc3ccc(F)cc3)c2C1 (configuration not stated) | 5.072 and 4.886 | 7.84 | 5.001 | 8.3 | pIC50 (Plasmodium falciparum): 6.698; IC50 (Plasmodium falciparum): 0.204 µM; IC50 [2]: 22.2 µM; pIC50 [3]: 4.893; IC50 [3]: 6.43 µM; IC50 [4]: 48.6 µM
Cc1[nH]/c(=N\C(=O)c2csc(NC3CC3)n2)sc1C | 5.049 and 4.932 | 13.2 | 4.559 | 47.7 | –
CCN1CC(CN(C)c2cc(C)nc(N)n2)Oc2ccccc21 (configuration not stated) | 4.724 and 4.705 | 19.3 | 4.519 | 35.1 | –
OC(CNc1nc(C2CCCC2)nc2c1CCNCC2)C(F)(F)F (configuration not stated) | 5.186 and 5.15 | 6.61 | 4.72 and 4.703 | 18.4 | –
CC(N)C(=O)N1CCC(Oc2cccc(C(F)(F)F)c2)CC1 (configuration not stated) | 5.074 and 4.999 | 13.2 | 4.638 | 19.3 | –
Cc1nc(C2(O)CCCNCC2)sc1CCOc1ccc(F)c(F)c1.Cl (configuration not stated) | 5.175 and 5.131 | 6.99 | 4.936 | 11.6 | IC50 (Tryptophan--tRNA ligase): > 195 µM
COc1ccc(-c2nc(CN3CCCC(OC)C3)c(C)o2)c(F)c1 (configuration not stated) | 5.649 and 5.647 | 2.36 | 4.638 | 30.9 | –
Cc1ccc(CNC2CCN(CCc3ccncc3)CC2)cc1C | 5.061 and 5.288 | 6.7 | 4.955 | 15.6 | –
COCCN(CC1CC1)c1nc(CCN)nc2sc(C)c(C)c12 | 4.814 and 4.866 | 16.2 | – | > 25.1 | –
Cc1c(C)c(C)c2[nH]c(-c3cn(C4CCNCC4)nn3)nc2c1C | 5.199 and 5.184 | 6.01 | 4.511 | 19.8 | –
Cc1ccc(CNC(CN2CCN(C)CC2)c2ccccc2)cc1C (configuration not stated) | 5.711 and 5.621 | 1.7 | – | 4.57 | –
COCC(C)NCc1nc(-c2ccc(C)cc2)c(-c2ccccn2)[nH]1 (configuration not stated) | – | > 50.1 | 4.597 | 16 | –
CCCc1cc(=O)[nH]c(-n2nc(C3CC3)cc2N)n1 | 5.268 and 5.368 | 5.23 | 4.51 | 39.6 | pIC50 [1]: 5.649; IC50 [1]: 1.95 µM; IC50 [2]: 16.1 µM; IC50 [3]: 6.14 µM; IC50 [4]: 23.8 µM
Cc1nc(C2(O)CCCNCC2)sc1CCOc1ccccc1F.Cl (configuration not stated) | 4.648 and 4.682 | 21.9 | – | – | –
CCCc1ccc(C(C)Nc2ncnc3c2CCNC3)cc1 (configuration not stated) | 4.735 and 4.73 | 20.2 | 4.733 | 21.6 | –
